Laboratory results reported in PMC7766656, “Evaluation of the In Vitro Cytotoxic Activity of Caffeic Acid Derivatives and Liposomal Formulation against Pancreatic Cancer Cell Lines” (Materials, 2020).

Assays:
[1] = tested on: NHDF (normal human dermal fibroblasts); test: MTT cytotoxicity assay, NHDF control cells, 72 h; assay type: cell-based; settings: free compound in DMSO
Experimental: (§1) In vitro cell culture procedures were performed under aseptic conditions and cultures were maintained in an Innova CO-180 incubator (New Brunswick Scientific, Edison, NJ, USA). Pancreatic cancer cells, namely, BxPC-3 (primary pancreatic tumor) and AsPC-1 (from ascites of a patient with pancreatic cancer) cells, were cultured in RPMI-1640 medium supplemented with 10% heat inactivated fetal bovine serum (FBS), GlutaMAX™ and antibiotic-antimycotic. NHDF cells were cultured in alpha-MEM medium supplemented with 10% heat-inactivated FBS, GlutaMAX™ and antibiotic-antimycotic. Culture was carried out at 37 °C in a humidified atmosphere containing 5% CO2.
(§2) The effect of CA and its derivatives on cell viability was determined using a quantitative colorimetric MTT assay adapted from Mosmann. Cells were seeded in 96-well plates (5 × 10^3/well), in appropriate complete cell culture medium, for 24 h. The cells were treated with caffeic acid derivatives (in the range of 18.75–150 μM), DMSO (an equivalent volume of DMSO was used as a negative control, maximal concentration was 0.4% v/v) or liposomal formulations for 72 h. The medium containing tested chemicals was removed and MTT solution (working solution: stock 0.5 mg/mL was 10 times diluted in medium) was added to the wells, and the plates were incubated for a further 3 h. Subsequently, the MTT solution was replaced with DMSO (50 μL/well) to dissolve the purple formazan crystals. Absorbance was measured at 560 nm with a reference wavelength of 670 nm on an Asys UVM 340 Microplate Reader (Cambridge, UK). Results were expressed as the percentage of surviving cells, with respect to the control (the untreated cells) calculated as: Cell Viability (%) = (AT/AC) × 100(2) where: • AT = Absorbance of the treatment well (treated cells); • AC = Absorbance of the control well (not treated cells).
(§3) IC50 values were calculated using GraphPad Prism for Windows (GraphPad Software, La Jolla, CA, USA). The degree of selectivity of the CA derivatives against pancreatic cancer cells was expressed by the selectivity index (SI) where: SI = IC50 normal cells/IC50 cancer cells(3)
(§4) The purpose of this study was to obtain a preliminary insight into the anticancer activity of a series of caffeic acid derivatives. In order to determine the in vitro cytotoxicity of the resynthesized compounds, the activity of CA and twelve derivatives (Table 1), were screened against two human PC cell lines, BxPC3 and AsPC1, derived from primary and metastatic tumors, respectively. Since we were also interested in evaluating the degree of selectivity of the synthetized derivatives, we decided to use normal human dermal fibroblasts as control, healthy, cells. This made it possible to determine the specificity of the tested substances, in terms of their selectivity index towards pancreatic cancer cells. The cytotoxicity of the examined compounds was estimated using the classic MTT assay, which is based on the detection of the activity of oxidoreductive enzymes (mainly mitochondrial succinate dehydrogenase), which are present only in living, metabolically active cells. During the experiments, cells were incubated for 72 h in the presence of increasing concentrations of CA and the series of CA derivatives, in the range of 18.75–150 μM. […] Untreated cells were tested as the control group.

[2] = tested on: AsPC1 pancreatic cancer cells; test: MTT cytotoxicity assay, AsPC1 cells, 72 h; assay type: cell-based, human; settings: for IC50: Homo sapiens, ASPC1, free compound in DMSO, MTT, 72 h; for AsPC1 SI: selectivity index = IC50 of NHDF/IC50 of AsPC1, free compound
Experimental: as §1, §2, §3, §4

[3] = tested on: BxPC3 pancreatic cancer cells; test: MTT cytotoxicity assay, BxPC3 cells, 72 h; assay type: cell-based, human; settings: for IC50: Homo sapiens, BXPC-3, free compound in DMSO, MTT, 72 h; for BxPC3 SI: selectivity index = IC50 of NHDF/IC50 of BxPC3, free compound
Experimental: as §1, §2, §3, §4

[4] = Compound encapsulation efficiency (EE) in liposomes; assay type: physicochemical; settings: SPC:DSPE-PEG2000 95:5 mol/mol liposomes
Experimental: Caffeic acid derivatives encapsulated liposomes were prepared using the dry lipid film and extrusion method. A 1 mL solution of 10 mg of total lipids in chloroform (SPC:DSPE-PEG2000 95:5 mol/mol) were mixed with 1 mg of caffeic acid esters in methanol. Subsequently, solvents were removed from the samples via evaporation under a stream of nitrogen-gas to form a homogeneous lipid film on the flask wall and dried for 2 h at low pressure using a Savant Modulyo lyophilizer (Thermo Fisher Scientific, Waltham, MA, USA). Then, the lipid film was suspended by addition of 1 mL of sterile normal saline (0.9% NaCl), with mixing, until it was completely hydrated. […]
The lipid concentration was determined by the Stewart assay. The amount of (7) was determined spectrophotometrically at 290 nm and was calculated from the appropriate calibration curve according to the method described previously:EE (%) = CAf(mg/mL)/Lf(mg/mL)/CAi(mg/mL)/Li(mg/mL) × 100(1) where CAi(mg/mL)/Li(mg/mL) represents the (caffeic acid derivate)-to-lipid ratio at the point when the compound was mixed with the liposomes, and CAf(mg/mL)/Lf(mg/mL) is the final (caffeic acid derivate)-to-lipid ratio of the liposomes.

[5] = tested on: BxPC3 cells; design: method as in PMID 18824880; settings: 10 μg/mL (35 μM); cited from earlier work
[6] = tested on: MIAPACa-2 pancreatic cancer cell line; design: method as in PMID 26373299; settings: 25 μg/mL (87 μM), 48 h incubation; cited from earlier work
[7] = tested on: PANC-1 pancreatic cancer cell line; design: method as in PMID 26373299; settings: 25 μg/mL (87 μM), 48 h incubation; cited from earlier work

Question: Which IC50 [1] does the source give for `CC(=O)/C=C/c1ccc(O)cc1` [(9)] here?
Answer: 59.2 ± 11.6 µM

Question: And the IC50 [2]?
Answer: 25.6 ± 2.17 µM

Question: And the “AsPC1 SI” value [2]?
Answer: 2.31

Question: And the IC50 [3]?
Answer: 28.1 ± 3.36 µM

Question: And the “BxPC3 SI” value [3]?
Answer: 2.11

Question: Which results are given for `CC(=O)/C=C/c1ccc(O)cc1O` [(10)]?
Answer: IC50 [1]: 54.6 ± 2.25 µM; IC50 [2]: 35.3 ± 1.28 µM; AsPC1 SI [2]: 1.54; IC50 [3]: 34.1 ± 1.74 µM; BxPC3 SI [3]: 1.60

Question: Which IC50 [1] does the source give for `CC(=O)/C=C/c1ccc(O)c(O)c1O` [(11), 4-(2’, 3’, 4’-trihydroxyphenyl)-3 (E)-buten-2-one] here?
Answer: 61.7 ± 10.5 µM

Question: What about the IC50 [2] of the same molecule?
Answer: 18.4 ± 0.74 µM

Question: What about the “AsPC1 SI” value [2] of the same molecule?
Answer: 3.36

Question: What about the IC50 [3] of the same molecule?
Answer: 21.7 ± 1.51 µM

Question: What about the “BxPC3 SI” value [3] of the same molecule?
Answer: 2.84

Question: Which results are given for `CC(=O)/C=C/c1ccccc1O` [Compound (7)]?
Answer: Encapsulation efficiency [4]: 93%; IC50 [1]: 61.1 ± 1.95 µM; IC50 [2]: 18.7 ± 0.24 µM; AsPC1 SI [2]: 3.27; IC50 [3]: 22.4 ± 2.52 µM; BxPC3 SI [3]: 2.73

Question: With `COC(=O)/C=C/c1ccc(O)c(O)c1O` [(5)] as the molecule, how does the IC50 [1] read?
Answer: 98.8 ± 9.56 µM

Question: What about the IC50 [2] of the same molecule?
Answer: 42.5 ± 3.57 µM

Question: And the IC50 [3]?
Answer: 46.6 ± 3.47 µM

Question: What does the source list for `CC(=O)/C=C/c1cccc(O)c1` [(8)]?
Answer: IC50 [1]: 79.7 ± 6.3 µM; IC50 [2]: 19.2 ± 0.72 µM; AsPC1 SI [2]: 4.14; IC50 [3]: 30.5 ± 4.55 µM; BxPC3 SI [3]: 2.61

Question: With `O=C(/C=C/c1ccc(O)c(O)c1)OCCc1ccccc1` [CAPE, caffeic acid phenethyl ester] as the molecule, how does the Inhibition [5] read?
Answer: 80.4%

Question: What about the “Reduction of proliferation rate” value [6] of the same molecule?
Answer: 65.7%

Question: What about the “Reduction of proliferation rate” value [7] of the same molecule?
Answer: 93.0%

Question: What does the source list for `COc1cc(/C=C/C(C)=O)ccc1O` [(12)]?
Answer: IC50 [1]: 51.5 ± 1.2 µM; IC50 [2]: 38 ± 6.12 µM; AsPC1 SI [2]: 1.36; IC50 [3]: 29.9 ± 5.13 µM; BxPC3 SI [3]: 1.72
